“And” between values parts separate entries of the source, which are not always exact repeats. Equal values may be shown once. The source made the active and inactive calls. The rule behind the calls is not given here.
How the values were obtained:
Assay type in all cases: functional
[1] = species: Mus musculus; assay: Antispasmodic activity evaluated as percentage reduction in the contractile response of the estrous uterus in mouse
[2] = species: Mus musculus; assay: Compound was evaluated for the percentage inhibition of PGF2-alpha-induced contractions at a concentration of 10 e-5 M in isolated mouse ileum
[3] = species: Mus musculus; assay: Compound was evaluated for the percentage inhibition of the control PGF2-alpha response at a concentration of 3 x 10 e-4 M in isolated mouse ileum
[4] = species: Mus musculus; assay: Compound was evaluated for the percentage inhibition of PGF2-alpha-induced contractions at a concentration of 10 e-5 M in isolated mouse ileum; NI=No inhibition

In the case of `CCN(CC)CCC[C@H](C)Nc1ccnc2cc(Cl)ccc12`, the Reduction [1] is reported as 50%.

With `CCN(CC)CCC[C@@H](CCl)Nc1ccnc2cc(Cl)ccc12.Cl` the inhibition at 10 µM [2] was 28% and the Inhibition [3] was 55% and 32%.

For `CCN(CC)CCC[C@H](CCl)Nc1ccnc2cc(Cl)ccc12`, the inhibition [4] was “inactive” and the inhibition at 300 µM ([3]; Mus musculus, Ileum) was 17%.
